In US20020040052A1, “Method for neurite outgrowth” (priority 2000, published 2002):

Test system: PC12 cells derived from adrenal medulla pheochromocytoma of rats
Test: Neurite extension of PC12 cells: percentage of cells with extended neurites after culturing for 3 days
Type: cell-based, rat
Description: Next, PC12 cells derived from adrenal medulla pheochromocytoma of rats were seeded in a serum-free DMEM/F12 medium containing 5 μg/ml of transferrin, 5 μg/ml of insulin and 20 nM of progesterone (GIBCO Corp., hereinafter, referred to as “DMEM-TIP medium”) at 2.0×10^4 cells/well (flat-bottomed 24 well collagen coated plate, manufactured by IWAKI). Then, the cells were cultured overnight at 37° C. under 5% CO2. […]
After culturing for 3 days, for each well of the plate, microscopic observation was conducted with respect to the cells at 200 times magnification. The percentage of the cells with extended neurites (cells that have neurites longer than their diameter) to the total of more than 200 cells was calculated.

Row | SMILES | Ratio of the cells with extended neurites (10 μM in DMEM-TIP medium) [%] | Relative value of the ratio of the cells with extended neurites to control (Com. Ex. 1) (10 μM in DMEM-TIP medium) | Ratio of the cells with extended neurites (50 μM in DMEM-TIP medium) [%] | Relative value of the ratio of the cells with extended neurites to control (Com. Ex. 1) (50 μM in DMEM-TIP medium) | Ratio of the cells with extended neurites (100 μM in DMEM-TIP medium) [%] | Relative value of the ratio of the cells with extended neurites to control (Com. Ex. 1) (100 μM in DMEM-TIP medium)
1 | COc1ccc(-c2cc(=O)c3c(OC)c(OC)c(OC)c(OC)c3o2)cc1OC [nobiletin] | 8.7 | 2.5 | 16.6 | 4.7 | 42.8 | 12.2
2 | COc1ccc(-c2cc(=O)c3c(OC)c(OC)c(OC)c(OC)c3o2)cc1 [tangeretin] | 4.8 | 1.4 | – | – | 12.2 | 3.5
